Conditions: in water

N[C@@H](CCC(=O)N[C@@H](CS)C(=O)NCC(=O)O)C(=O)O
Conditions	solubility (mole fraction)
278.15 K	0.00427
283.15 K	0.00519
288.15 K	0.00659
293.15 K	0.00792
298.15 K	0.00936
303.15 K	0.0115
308.15 K	0.0139
313.15 K	0.0169
318.15 K	0.0202

From BigSolDB 2.1
